Data from US5473074A, “Adenosine diphosphoribose polymerase binding nitroso aromatic compounds useful as retroviral inactivating agents, anti-retroviral agents and anti-tumor agents-54” (priority 1992, dated 1995).
“Also recorded” adds a separate entry of the source. Like-named read-outs stand apart in the source and are kept apart here.

Columns and labels:
[1] = test system: cancer cells (855-2 and HL-60 leukemia, D32, D37 and CRL 7712 glioblastoma, 186 medulla tumor, L1210 murine leukemia, MDA-468 human breast tumor); assay: Functions of cancer cells in absence or presence of compounds (FIGS. 4-9); type: cell-based
Procedure: (§1) Experiments were performed in which the functions of various cancer cells (855-2 and HL-60 leukemia cells, D32, D37 and CRL 7712 glioblastoma cell lines, 186 medulla tumor cell line, L1210 murine leukemia cell line, MDA-468 human breast tumor cell line) and normal cells (neutrophil leukocytes and bone marrow or peripheral blood stream cells) were assessed in the absence or presence of the compounds.

[2] = test system: HIV-1; assay: Anti-HIV action on stimulated human lymphoblasts, virus titer; type: cell-based; details: 30 min exposure, virus alone 5.25
Procedure: VIII. Anti-HIV action of NOBP, NOBA and NOQ on stimulated human lymphoblasts
Exposure to the two drugs was only for 30 minutes at the commencement of viral infection, and drugs were never re-added. The results given in Table III provide the ID50 of HIV titer 10 days after infection of cell cultures with HIV.

[3] = test system: ADPRT; details: cited from earlier work
[4] = test system: malignant transformation / neoplasia; details: in vitro and in vivo; Tseng, et al.; cited from earlier work
[5] = test system: cells / HIV; assay: Anti-tumor / anti-HIV (biological) action, general statement
[6] = not told
[7] = target: calf thymus ADPRT (Bos taurus, UniProt P18493); assay: ADPRT polymerase activity inhibition/inactivation (I50)
calf thymus ADPRT, sequence (P18493 whole entry): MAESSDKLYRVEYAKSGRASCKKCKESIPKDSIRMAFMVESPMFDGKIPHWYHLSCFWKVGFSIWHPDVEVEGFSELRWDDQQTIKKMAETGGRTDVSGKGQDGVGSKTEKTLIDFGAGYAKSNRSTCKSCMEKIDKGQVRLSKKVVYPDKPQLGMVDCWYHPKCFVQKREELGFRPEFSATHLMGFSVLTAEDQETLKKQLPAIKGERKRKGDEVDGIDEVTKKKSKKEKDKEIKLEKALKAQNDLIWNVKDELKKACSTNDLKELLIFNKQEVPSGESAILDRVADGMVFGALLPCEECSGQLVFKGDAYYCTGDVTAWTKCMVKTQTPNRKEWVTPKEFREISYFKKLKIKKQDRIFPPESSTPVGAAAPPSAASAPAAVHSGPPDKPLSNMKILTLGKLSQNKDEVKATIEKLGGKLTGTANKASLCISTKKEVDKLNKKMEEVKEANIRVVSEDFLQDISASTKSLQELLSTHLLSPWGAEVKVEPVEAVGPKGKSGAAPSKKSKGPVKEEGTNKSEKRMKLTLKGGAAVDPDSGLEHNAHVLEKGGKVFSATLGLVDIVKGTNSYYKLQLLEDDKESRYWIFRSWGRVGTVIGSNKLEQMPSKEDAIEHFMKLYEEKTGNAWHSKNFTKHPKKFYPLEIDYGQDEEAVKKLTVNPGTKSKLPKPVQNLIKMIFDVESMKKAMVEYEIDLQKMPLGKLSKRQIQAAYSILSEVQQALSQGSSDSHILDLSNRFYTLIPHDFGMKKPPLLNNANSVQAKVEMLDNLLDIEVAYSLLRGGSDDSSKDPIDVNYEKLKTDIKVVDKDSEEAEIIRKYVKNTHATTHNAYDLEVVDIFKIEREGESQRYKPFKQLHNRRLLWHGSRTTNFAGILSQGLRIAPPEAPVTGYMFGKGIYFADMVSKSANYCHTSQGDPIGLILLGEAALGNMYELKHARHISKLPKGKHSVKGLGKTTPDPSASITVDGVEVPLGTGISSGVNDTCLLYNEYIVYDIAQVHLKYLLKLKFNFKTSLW
Procedure: The compounds of the subject invention were tested for their ability to inactivate the polymerase activity of adenosinediphosphoribosyl transferase (ADPRT). Assays were performed according to the method of Buki and Kun, Biochem. 27:5990-5995 (1988), using calf thymus ADPRT.
Assay conditions: ADPRT, 0.4 μg; coDNA, 4 μg; inhibitor diluted
between 0.8 and 600 μM, in 50 μl of 50 mM TrisHCl, 50 mM KCl, 5 mM
2mercaptoethanol, 0.5 mM EDTA, 0.1 mM NAD ([32Plabelled), pH 7.5.
Polymerization at 25° C. for 4 minutes.

[8] = test system: 855-2 leukemia cells; assay: 855-2 growth inhibition, comparison with vincristine (FIG. 7); type: cell-based, human
Procedure: Vincristine, a highly toxic chemotherapeutic compound, is currently used in the treatment of leukemia and other malignancies. […] Vincristine was tested in doses of 0.1, 1, 10 and 100 μM.

[9] = target: Zn(HIV1-F1), N-terminal CCHC zinc finger of the HIV-1 NC protein (Human immunodeficiency virus type 1 lw12.3 isolate, UniProt Q70622); details: Summers, et al.; cited from earlier work
[10] = test system: human leukemia cell lines (855-2, H9, HL-60, K562); assay: [3H]thymidine uptake, human leukemia cell lines (FIG. 2); type: cell-based
Procedure: FIGS. 2A-2F are composite of graphs displaying the inhibitory effects of the ADRPT ligands on (FIG. 2A) 855-2 cells (a cell line of human B-cell lineage acute lymphoblastic leukemia), (FIG. 2B) H9 cells (a cell line of human T-cell lineage acute lymphoblastic leukemia), (FIG. 2C) HL-60 cells (a cell line of human acute nonlymphoblastic leukemia) and (FIG. 2D) K562 cells (a cell line of human chronic myelogenous leukemia). These cells were cultured while under the influence of the growth factors in 10% fetal bovine serum (FCS), whereas in (FIG. 2E) and (FIG. 2F) the 855-2 cells were cultured in the presence of autocrine growth factor activity (AGF) or low molecular weight-B-cell growth factor (BCGF, a T-cell derived lymphokine), respectively.

[11] = test system: H9 cells; assay: [3H]thymidine uptake, H9 cells; type: cell-based, human; details: 10% FCS
[12] = test system: K562 cells; assay: [3H]thymidine uptake, K562 cells; type: cell-based, human; details: 10% fetal bovine serum
[13] = test system: 855-2 cells; assay: [3H]thymidine uptake / growth, 855-2 cells; type: cell-based, human
[14] = test system: 855-2 cells; assay: Colony formation (CFU) in semi-solid medium, 855-2; type: cell-based, human; details: single cells in semi-solid medium
[15] = test system: HL-60 cells; assay: Colony formation (CFU) in semi-solid medium, HL-60; type: cell-based, human; details: single cells in semi-solid medium
[16] = test system: normal human stem cells (PBSC); assay: Colony formation (CFU-GM) of normal human stem cells (PBSC), FIG. 5B; type: cell-based; details: 0, 2, 4, 8 and 10 μM
[17] = test system: 855-2 cells; assay: MTT assay, cytocidal activity; type: cell-based, human; details: 10 μM, 100,000 cells/ml
Procedure: MTT (3-[4,5-[…]]-2,5-diphenyltetrazolium bromide) at 1 mg/ml was then added for 16 hours. The absorbance of the pelleted cell was then measured at 550 nm after adding DMSO to solubilze the cells.

[18] = test system: normal cells (neutrophil leukocytes and bone marrow or peripheral blood stem cells)
Procedure: as §1

[19] = test system: human peripheral blood neutrophil leukocytes
[20] = test system: human peripheral blood neutrophil leukocytes; assay: Superoxide generation by human neutrophils; details: 10 μM; 10^5 PMN + PMA (control 55.9 ± 7.7)
[21] = test system: normal rhesus bone marrow stem cells; assay: CFU stem cell toxicity assay, FIG. 5A

O=c1ccc2cc([N+](=O)[O-])ccc2o1 [NO2 BP, 6-nitro-1,2-benzopyrone]
activity against tumor cells, in words [1]: weakly active | activity against tumor cells, in words ([1]; listed as 6-nitro derivative): almost ineffective (against tumor cells) | Virus Titer (log ID50), 10 days ([2]; 250 μM): 4.93 log ID50

c1ccc2cnccc2c1 [isoquinoline]
inhibition of ADPRT polymerase activity, in words [3]: known to inhibit ADPRT polymerase activity

O=c1ccc2ccccc2o1 [coumarin (1,2-benzopyrone), 1,2-benzopyrone]
inhibition of ADPRT polymerase activity, in words [3]: known to inhibit ADPRT polymerase activity | inhibition of ADPRT polymerase activity, in words ([3]; listed as 1,2-benzopyrone (coumarin)): inhibitory ligand of adenosinediphosphoribosyl transferase (ADPRT) | anti-transforming and anti-neoplastic effect, in words [4]: anti-transforming and anti-neoplastic effect

O=Nc1ccc2oc(=O)ccc2c1I [5-I-6-NO-1,2-benzopyrone, 5-iodo-6-nitroso-1,2-benzopyrone]
biological action relative to 6-NO-1,2-benzopyrone ([5]; vs 6-NO-1,2-benzopyrone): 10 times weaker | permeation, in words [6]: poor permeant molecule | ADPRT inhibition, in words [7]: relatively poor inhibitor of ADRPT | IC50 [7]: 400 µM

NC(=O)c1ccccc1 [benzamide]
inhibition of ADPRT polymerase activity, in words [3]: known to inhibit ADPRT polymerase activity

CC[C@]1(O)C[C@H]2CN(CCc3c([nH]c4ccccc34)[C@@](C(=O)OC)(c3cc4c(cc3OC)N(C=O)[C@H]3[C@@](O)(C(=O)OC)[C@H](OC(C)=O)[C@]5(CC)C=CCN6CC[C@]43[C@@H]65)C2)C1 [vincristine, reference compound]
concentration required to produce the same level of inhibition as 10 μM NOBP ([8]; in vitro): 100 µM

O=c1c(O)c(-c2ccc(O)c(O)c2)oc2cc(O)cc(O)c12 [quercetin]
inhibition of ADPRT polymerase activity, in words [3]: known to inhibit ADPRT polymerase activity

O=C(O)CN(CCN(CC(=O)O)CC(=O)O)CC(=O)O [EDTA]
molar excess required to remove zinc from Zn(HIV-1-F1) [9]: 10 -fold molar excess

O=Nc1ccc2oc(=O)ccc2c1 [NOBP, 6-nitroso-1,2-benzopyrone]
inhibition of 3H-thymidine uptake, in words ([10]; 10 μM, 855-2, H9, HL-60, K562 cells): powerfully inhibited 3H-thymidine uptake | molar concentrations needed to inhibit 3H-thymidine uptake, in words ([10]; each of the cell lines tested): able to inhibit 3H-thymidine uptake in lower molar concentrations than the other compounds | inhibition of thymidine uptake, H9 ([11]; 100 μM): almost complete inhibition | inhibition at 10 µM ([11]; Homo sapiens, H9, 10 μM): ~30% | inhibition of cell growth (thymidine uptake), K562 ([12]; 100 μM): almost complete inhibition | relative potency, K562 [12]: most potent inhibitors of cell growth; also recorded: almost as potent as NOQ | relative inhibition of thymidine uptake, 855-2 ([13]; 1 μM, 10% fetal bovine serum): somewhat more inhibition than NOBA | inhibition of thymidine uptake, 855-2 ([13]; 10 μM, 10% fetal bovine serum): almost complete inhibition | growth arrest of 855-2 cells at increasing serum concentration ([13]; 10 μM, increasing FCS): Growth arrest occurs irrespective of the concentration of FCS | relative potency, 855-2 ([13]; 10% fetal bovine serum): potent inhibitory effects regardless of the source of growth factor activity | colony formation, 855-2, in words [14]: inhibit the ability of human leukemic cells (855-2 and HL-60) to form colonies | colony formation, HL-60, in words [15]: inhibit the ability of human leukemic cells (855-2 and HL-60) to form colonies | activity against tumor cells, in words [1]: highly effective (against tumor cells) | cytotoxicity on CFU-GM of PBSC, in words [16]: Toxicity was not detected | potency relative to vincristine ([8]; vs equal concentration of vincristine): about 10 times more potent | Virus Titer (log ID50), 10 days ([2]; 10 μM): 2.01 log ID50 | killing of 855-2 cells (MTT), in words [17]: complete killing | anti-tumor and anti-HIV activity, in words [5]: highly active as anti-tumor and anti-HIV molecules | effectiveness after short exposure of cells ([5]; exposure as short as 30 minutes): effective even after exposure of cells for a period as short as 30 minutes | effect on normal stem cell colony formation (FIG. 5), in words [18]: minimal effect on normal cells | effect on viability of normal cells, in words [18]: not to affect adversely the viability of normal cells | toxicity to normal cells, in words [18]: not toxic to normal cells | superoxide generation, in words [19]: Only minor reductions in superoxide generation | superoxide generation by human neutrophils (mean + S.D., n = 11) [20]: 34.1 ± 14.1 nmol O2^- /hr/10^5 cells | IC50 [7]: 40 µM

3-aminonaphthylhydrazide
inhibition of ADPRT polymerase activity, in words [3]: known to inhibit ADPRT polymerase activity

Nc1ccc2oc(=O)ccc2c1 [ABP, 6-amino-1,2-benzopyrone]
Virus Titer (log ID50), 10 days ([2]; 500 μM): 4.50 log ID50 | ADPRT binding, in words ([3]; site that also binds to DNA, Hakam, et al.): binds specifically to ADRPT at the site that also binds to DNA | CFU stem cell toxicity, in words ([21]; 1 mM): toxic at the tested given doses | IC50 [7]: 370 µM

Nc1ccc2oc(=O)ccc2c1I [IABP, 5-iodo-6-amino-1,2-benzopyrone]
Virus Titer (log ID50), 10 days ([2]; 250 μM): 4.66 log ID50 | inhibition of ADPRT polymerase activity, in words [3]: known ADPRT polymerase activity inhibitors | CFU stem cell toxicity, in words ([21]; 250 μM): toxic at the tested given doses | IC50 [7]: 41 µM
